What was measured:
[1] = tested on: spontaneously contracting cell aggregate; experiment: Reaction of cell aggregates on the addition of potassium (light microscope, video recordings); type: cell-based, Rainbow trouts (Oncorhynchus mykiss, Walbaum)
Description: The reaction of a cell aggregate which had already contracted for 16 days in culture on potassium could be tested in another experiment. It was shown under a light microscope (Axiovert 40C; Zeiss, Germany) with video recordings that the beating frequency of this aggregate increased from 66 beats per minute to 72 beats per minute over a period of 10 minutes. After these 10 minutes, a 1.75 mM potassium chloride solution was added. […] After removing the medium containing the 1.75 mM KCl solution and replacing it with fresh DMEM/20% FBS, the cell aggregate began to beat again after 2 minutes. However, the beating frequency was at first only 16 beats per minute which recovered to the original frequency within the next three days.

[2] = tested on: spontaneously contracting cell aggregates (certain channels in the heart: potassium and calcium channels); experiment: Drug tests on the cell aggregates (electrophysiology, intracellular derivation with a sharp electrode); type: cell-based, Rainbow trouts (Oncorhynchus mykiss, Walbaum); conditions: for reaction of the aggregates on drugs which influence certain channels in the heart: FIG. 10; for recovery of the aggregates after the drug testing: medium change
Description: FIG. 10 Effect of cardiac drugs on the cell aggregates; A: isoproterenol (calcium channel agonist); B: rilmakalim ([…])
The electrophysiology is important for the use of the cell aggregates as a test system in pharmacology. Measurement of the electric activity was performed by means of extracellular measurement via MEA (multi-electrode array) and intracellular measurement via a sharp electrode.
The properties of action potentials and the examination on certain channels (potassium and calcium channels) were carried out with a sharp electrode.
The reaction of the aggregates on drugs which influence certain channels in the heart is of importance for the functionality as a test model. […] Examinations were carried out with isoproterenol (calcium channel agonist) (FIG. 10A) and rilmakalim ([…]).

In the case of `[Cl-].[K+]` [potassium chloride], the “contraction speed of the aggregate after adding the KCl solution” value ([1]; 1.75 mM potassium chloride solution, aggregate 16 days contracting in culture, for 6 seconds after addition, baseline 66-72 beats per minute) is reported as “triple the speed as before”, the “time after addition until contraction stopped” value ([1]; 1.75 mM potassium chloride solution, no more contractions observed) is reported as 10 s and the “beating frequency at first after medium replacement” value ([1]; after removal of 1.75 mM KCl, recovered to the original frequency within the next three days) is reported as 16 beats per minute. For the same compound, the “time until the cell aggregate began to beat again after replacing medium” value ([1]; after removing medium containing 1.75 mM KCl and replacing with fresh DMEM/20% FBS) was 2 min.
In the case of `CC(C)NCC(O)c1ccc(O)c(O)c1` (centres unmarked) [isoproterenol], the “reaction of the aggregates on drugs which influence certain channels in the heart” value [2] is reported as “in the same manner as the human heart” and the “recovery of the aggregates after the drug testing” value [2] is reported as “recover after the drug testing by means of a medium change”.
With `CC1(C)Oc2ccc(S(=O)(=O)c3ccccc3)cc2[C@@H](N2CCCC2=O)[C@@H]1O` [rilmakalim] the “reaction of the aggregates on drugs which influence certain channels in the heart” value [2] was “in the same manner as the human heart” and the “recovery of the aggregates after the drug testing” value [2] was “recover after the drug testing by means of a medium change”.

— patent publication US8735151B2, “Spontaneously contracting fish cell aggregates, use thereof and method for the production thereof” (Fraunhofer-Gesellschaft zur Foerderung der Angewandten …, priority 2009, dated 2014)
